Assay results reported in the NIST ThermoML archive (doi:10.1016/j.fluid.2014.09.014).

Experiment: refractive index (other wavelength) (dimensionless); xn = mol fraction of the nth substance listed
Settings: 101 kPa, Liquid, Standard Abbe refractometry

CC(C)OC(C)C [diisopropyl ether] + CC(C)O
refractive index
Settings	Wavelength=404.7 nm	Wavelength=435.8 nm	Wavelength=486.1 nm	Wavelength=546.1 nm	Wavelength=587.6 nm	Wavelength=589.3 nm	Wavelength=632.8 nm	Wavelength=644 nm	Wavelength=706.5 nm
298.15 K, x1 = 0.0277	–	–	–	–	–	1.37492	1.3736	1.37329	1.37183
298.15 K, x1 = 0.0507	–	–	–	–	–	1.37483	1.37352	1.37322	1.37174
298.15 K, x1 = 0.051	–	–	–	–	–	1.37489	1.37358	1.37327	1.37179
298.15 K, x1 = 0.0717	–	–	–	–	–	1.37462	1.37331	1.373	1.37152
298.15 K, x1 = 0.1528	–	–	–	–	–	1.37401	1.3727	1.3724	1.37093
298.15 K, x1 = 0.1553	–	–	–	–	–	1.37401	1.3727	1.3724	1.37093
298.15 K, x1 = 0.1938	–	–	–	–	–	1.37373	1.37243	1.37213	1.37068
298.15 K, x1 = 0.2029	–	–	–	–	–	1.37346	1.37215	1.37185	1.37039
298.15 K, x1 = 0.245	–	–	–	–	–	1.37306	1.37177	1.37147	1.37002
298.15 K, x1 = 0.297	–	–	–	–	–	1.37259	1.3713	1.371	1.36955
298.15 K, x1 = 0.2973	–	–	–	–	–	1.37284	1.37156	1.37126	1.3698
298.15 K, x1 = 0.3068	–	–	–	–	–	1.37238	1.37108	1.37078	1.36933
298.15 K, x1 = 0.398	–	–	–	–	–	1.37122	1.36993	1.36964	1.36819
298.15 K, x1 = 0.4609	–	–	–	–	–	1.37063	1.36933	1.36903	1.36758
298.15 K, x1 = 0.5434	–	–	–	–	1.36987	1.36981	1.36853	1.36823	1.36678
298.15 K, x1 = 0.6032	–	–	–	–	1.3693	1.36925	1.36797	1.36767	1.36623
298.15 K, x1 = 0.6371	–	–	–	–	1.36894	1.36889	1.36762	1.36731	1.36587
298.15 K, x1 = 0.701	–	–	–	–	1.36828	1.36823	1.36695	1.36666	1.36523
298.15 K, x1 = 0.754	–	–	–	–	1.36792	1.36786	1.36659	1.36629	1.36485
298.15 K, x1 = 0.791	–	–	–	–	1.36756	1.3675	1.36623	1.36593	1.3645
298.15 K, x1 = 0.8296	–	–	–	–	1.36723	1.36717	1.36589	1.36559	1.36417
298.15 K, x1 = 0.8864	–	–	–	–	1.367	1.36695	1.36567	1.36537	1.36394
298.15 K, x1 = 0.8903	–	–	–	–	1.36659	1.36653	1.36526	1.36497	1.36354
298.15 K, x1 = 0.9113	–	–	–	–	1.3667	1.36631	1.36504	1.36475	1.36332
298.15 K, x1 = 0.9547	–	–	–	–	1.36596	1.36587	1.36459	1.3643	1.36289
298.15 K, x1 = 0.973	–	–	–	–	1.3656	1.36557	1.3643	1.364	1.36258
298.15 K, x1 = 0.9771	–	–	–	–	1.36557	1.36551	1.36423	1.36393	1.36281
298.15 K, x1 = 1	–	–	–	–	1.36535	1.3653	1.36402	1.36373	1.36237
303.15 K, x1 = 0.0277	1.38362	1.3806	1.37718	1.37435	1.37285	1.37279	1.37149	1.37119	1.36973
303.15 K, x1 = 0.0507	1.38359	1.38056	1.37714	1.3743	1.3728	1.37274	1.37145	1.37115	1.36969
303.15 K, x1 = 0.051	1.38351	1.38049	1.37707	1.37423	1.37273	1.37268	1.37138	1.37107	1.36962
303.15 K, x1 = 0.0717	1.38322	1.3802	1.37678	1.37395	1.37244	1.37238	1.37109	1.37079	1.36934
303.15 K, x1 = 0.1528	1.38258	1.37956	1.37614	1.37331	1.37181	1.37176	1.37047	1.37018	1.36872
303.15 K, x1 = 0.1553	1.38258	1.37956	1.37614	1.37331	1.37181	1.37176	1.37047	1.37018	1.36872
303.15 K, x1 = 0.1938	1.38229	1.37926	1.37584	1.37303	1.37153	1.37147	1.37018	1.36988	1.36843
303.15 K, x1 = 0.2029	1.38193	1.37892	1.37549	1.37266	1.37116	1.37111	1.36981	1.36952	1.36807
303.15 K, x1 = 0.245	1.38148	1.37846	1.37506	1.37223	1.37075	1.37069	1.36941	1.36911	1.36767
303.15 K, x1 = 0.297	1.38091	1.37798	1.37446	1.37163	1.37013	1.37008	1.3688	1.3685	1.36705
303.15 K, x1 = 0.2973	1.38111	1.37809	1.37467	1.37184	1.37036	1.37031	1.36902	1.36872	1.36727
303.15 K, x1 = 0.3068	1.38076	1.37775	1.37433	1.37149	1.37001	1.36996	1.36867	1.36837	1.36692
303.15 K, x1 = 0.398	1.37951	1.3765	1.37309	1.37025	1.36877	1.36872	1.36744	1.36715	1.3657
303.15 K, x1 = 0.4609	1.37885	1.37585	1.37245	1.3696	1.36818	1.36807	1.3668	1.3665	1.36501
303.15 K, x1 = 0.5434	1.37802	1.37503	1.37161	1.36879	1.36731	1.36726	1.36598	1.36567	1.36425
303.15 K, x1 = 0.6032	1.37738	1.3744	1.37096	1.36815	1.36667	1.36661	1.36533	1.36504	1.36362
303.15 K, x1 = 0.6371	1.37701	1.37401	1.37059	1.36779	1.36631	1.36626	1.36497	1.36466	1.36326
303.15 K, x1 = 0.701	1.37631	1.37333	1.36992	1.36711	1.36564	1.36559	1.36431	1.36401	1.36259
303.15 K, x1 = 0.754	1.37593	1.37295	1.36954	1.36673	1.36525	1.36519	1.36391	1.36362	1.36221
303.15 K, x1 = 0.791	1.37553	1.37254	1.36913	1.36633	1.36485	1.3648	1.36352	1.36323	1.36182
303.15 K, x1 = 0.8296	1.37518	1.37221	1.3688	1.36599	1.36453	1.36447	1.3632	1.3629	1.36148
303.15 K, x1 = 0.8864	1.37495	1.37197	1.36856	1.36576	1.3643	1.36424	1.36297	1.36267	1.36126
303.15 K, x1 = 0.8903	1.37451	1.37154	1.36813	1.36533	1.36386	1.36381	1.36254	1.36225	1.36083
303.15 K, x1 = 0.9113	1.37428	1.37131	1.36791	1.36511	1.36365	1.3636	1.36233	1.36203	1.36061
303.15 K, x1 = 0.9547	1.37382	1.37084	1.36747	1.36465	1.36319	1.36314	1.36187	1.36157	1.36016
303.15 K, x1 = 0.973	1.37347	1.3705	1.36711	1.3643	1.36285	1.36279	1.36153	1.36123	1.35983
303.15 K, x1 = 0.9771	1.37338	1.3704	1.36702	1.36421	1.36275	1.3627	1.36145	1.36115	1.35972
303.15 K, x1 = 1	1.37321	1.37022	1.36687	1.36406	1.3626	1.36255	1.3613	1.361	1.3596
